Each block holds one compound with its values, some of them ahead of it. The source made the active and inactive calls. No cut-off for these calls is given here.
Legend:
Type in all cases: microsomes
Details in all cases: Microsome
[1] = target: T1, 3-hydroxy-3-methylglutaryl-coenzyme A reductase (Rattus norvegicus) (UniProt P51639); test: Inhibition of enzyme activity in a rat hepatic microsomal HMG-CoA reductase at 100 uM IA means inactive
T1 sequence (whole entry): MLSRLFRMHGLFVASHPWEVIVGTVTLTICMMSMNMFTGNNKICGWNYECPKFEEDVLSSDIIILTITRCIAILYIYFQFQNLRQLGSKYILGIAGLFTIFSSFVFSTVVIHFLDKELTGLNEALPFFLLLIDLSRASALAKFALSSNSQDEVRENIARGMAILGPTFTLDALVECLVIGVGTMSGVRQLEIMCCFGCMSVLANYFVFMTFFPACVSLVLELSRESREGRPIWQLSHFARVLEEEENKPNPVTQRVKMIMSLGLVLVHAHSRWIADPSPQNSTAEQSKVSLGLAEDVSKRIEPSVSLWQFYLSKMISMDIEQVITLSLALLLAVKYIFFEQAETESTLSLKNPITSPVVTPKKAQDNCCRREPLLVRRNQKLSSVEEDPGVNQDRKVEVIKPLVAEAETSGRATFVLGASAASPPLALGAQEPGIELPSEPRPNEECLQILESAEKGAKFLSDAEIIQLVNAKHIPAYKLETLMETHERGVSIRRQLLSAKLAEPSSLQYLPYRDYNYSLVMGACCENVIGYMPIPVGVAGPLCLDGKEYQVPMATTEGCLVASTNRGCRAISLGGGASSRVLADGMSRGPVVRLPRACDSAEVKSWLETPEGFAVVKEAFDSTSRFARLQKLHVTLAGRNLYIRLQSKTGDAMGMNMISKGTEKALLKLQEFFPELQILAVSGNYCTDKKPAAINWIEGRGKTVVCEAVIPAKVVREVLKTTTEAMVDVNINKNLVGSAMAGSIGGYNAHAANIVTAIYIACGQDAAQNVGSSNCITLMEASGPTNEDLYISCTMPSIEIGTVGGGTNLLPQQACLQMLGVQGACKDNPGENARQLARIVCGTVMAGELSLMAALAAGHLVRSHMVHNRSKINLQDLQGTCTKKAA

[2] = target: T1, 3-hydroxy-3-methylglutaryl-coenzyme A reductase (Rattus norvegicus); test: Inhibition of enzyme activity in a rat hepatic microsomal HMG-CoA reductase at 100 uM
[3] = target: T1, 3-hydroxy-3-methylglutaryl-coenzyme A reductase (Rattus norvegicus); test: Inhibition of enzyme activity in a rat hepatic microsomal HMG-CoA reductase at 100 uM; IA means inactive

Activity [1]: inactive
SMILES: CC(C)[C@@H](O)C(=O)NCCC(=O)NCCSCC(=O)CC(O)CC(=O)O (stereo partly drawn)

inhibition [2]: 24%
SMILES: CC(C)[C@@H](O)C(=O)NCCC(=O)NCCSCCC(O)CC(=O)O (stereo partly drawn)

Activity [3]: inactive
SMILES: CC(C)[C@@H](O)C(=O)NCCC(=O)NCCSCC(O)CC(O)CC(=O)O (stereo partly drawn)

From ChEMBL document CHEMBL1125850, “Synthesis of substrate-based inhibitors of HMG CoA reductase” (Bioorg Med Chem Lett, 1991)
